Source: US12336981B2, “Compounds and compositions for the inhibition of NAMPT” (Valo Health, Inc., priority 2010, dated 2025)

Tests used:
tumor cell lines = details: broad range of tumor cell lines; Ravaud et al. 2005; cited from earlier work
[1] = tested on: murine renal cell carcinoma; details: Drevs et al. 2003; cited from earlier work
HepG2 cells = details: Hasmann et al. 2003; cited from earlier work
mouse mammary carcinoma = details: in vivo; cited from earlier work
A2780 cells [2] = test: Xenograft studies: A2780 tumors s.c. in C.B-17-Igh-1b-Prkdc scid mice; format: in vivo; details: female scid mice, p.o. BID for 5 or 10 days, dose selected from MTD study
Procedure: C.B-17-Igh-1b-Prkdc^scid mice (female) were injected s.c. with 5×10^6 A2780 cells (NCI) in the left flank. 10-12 days later when tumors reached 100-200 mm3 in size, mice were randomized into treatment groups of 8 mice per group including vehicle control and reference standard groups. The compounds were formulated in 60:30:10 PEG-400: D5W: Ethanol and administered p.o., at the dose volume of 10 ml/kg BID for a duration of 5 or 10 days. The dose used for efficacy was selected from the MTD (Maximum Tolerated Dose) study. Mice were weighed and tumors measured using vernier calipers every alternate day. Tumor volume was calculated according to the formula (length×width^2)/2. All animal work was approved by the Institutional Animal Care and Use Committee of Biological Resource Centre, Singapore.

U251 cells = test: In-vitro cell proliferation assay (SRB), U251 cells; format: cell-based; details: Homo sapiens, U-251, 72 hours
Procedure: After overnight incubation at 37° C. and 5% CO2, the compound titrations were performed in a separate dilution plate by serially diluting the compounds in DMSO to make a 1000× stock. The compounds were then further diluted to 10× final concentration in culture media, whereupon 20 μL of each dilution was added to the plated cells with controls (e.g. DMSO and blank) to make a final volume of 5 200 μL. The final DMSO concentration in each well was 0.1%. The plates were then incubated for 72 hours at 37° C. in a 5% CO2 incubator. The number of viable cells was then assessed using sulforhodamine B (SRB) assay. Cells were fixed at 4° C. for 1 hour with the addition of 50 μL 30% trichloroacetic acid (TCA) to make a final concentration of 6% 10 TCA. The plates were washed four times with H2O and allowed to dry for at least 1 hour, whereupon 100 μL of a 4% SRB in 1% acetic acid solution was added to each well and incubated at room temperature for at least 30 minutes. The plates were then washed three times with 1% acetic acid, dried, and treated with 100 μL of 10 mM Tris-Base solution. The plates were then read in a microplate reader at an absorbance of 570 nm. 15 Background was generated on a separate plate with media only. Method for Determining % Inhibition First, the signals from the background plate are averaged, then the background was subtracted from the test plates.

NAMPT = molecular target: T1, NAMPT (Homo sapiens, UniProt P43490); test: Biochemical inhibition assay: NAMPT enzymatic reaction, NMN quantified by mass spectrometry; details: NAMPT enzymatic reaction; read-out: Biochem IC50
T1 construct: His tag; host or cells: E. coli
In short: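 Inhibition of E. coli-expressed His-tagged human NAMPT, measured as NMN formation by mass spectrometry after a 30 min room-temperature reaction containing 1 μM NAM, 100 μM PRPP and 2.5 mM ATP.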

A2780 cells [3] = test: In-vitro cell proliferation assay (SRB), A2780 cells; format: cell-based; details: Homo sapiens, A2780, 72 h, A2780 cells, 72 hours, SRB assay; read-out: A2780 IC50
In short: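 Proliferation is assessed by sulforhodamine B staining following a 72-hour incubation with compound dilutions containing 0.1% DMSO.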

T1 sequence (P43490 whole entry): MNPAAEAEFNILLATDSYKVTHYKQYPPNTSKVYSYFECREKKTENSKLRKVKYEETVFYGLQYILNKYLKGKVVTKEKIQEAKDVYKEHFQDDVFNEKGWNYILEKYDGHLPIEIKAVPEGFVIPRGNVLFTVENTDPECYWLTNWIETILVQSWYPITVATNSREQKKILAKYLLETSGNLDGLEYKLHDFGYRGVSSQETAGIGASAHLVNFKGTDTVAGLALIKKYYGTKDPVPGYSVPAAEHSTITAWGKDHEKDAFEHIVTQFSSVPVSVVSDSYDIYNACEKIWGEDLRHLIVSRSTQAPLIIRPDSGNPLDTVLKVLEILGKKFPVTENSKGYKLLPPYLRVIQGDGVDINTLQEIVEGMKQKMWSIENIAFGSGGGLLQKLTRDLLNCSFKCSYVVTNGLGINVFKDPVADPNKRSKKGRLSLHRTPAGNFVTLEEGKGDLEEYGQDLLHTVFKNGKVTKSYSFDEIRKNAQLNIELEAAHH

SMILES	Effect on tumor in A2780 xenograft (A2780 cells [2])	IC50 (NAMPT)	IC50 (A2780 cells [3])	further results
N#C/N=C(\NCCCCCCOc1ccc(Cl)cc1)Nc1ccncc1 [CHS-828]				Cell growth inhibition in tumor cell lines (tumor cell lines): potently inhibit cell growth
O=C(/C=C/c1cccnc1)NCCCCC1CCN(C(=O)c2ccccc2)CC1 [FK866, (E)-N-[4-(1-benzoylpiperidin-4-yl)butyl]-3-(pyridine-3-yl)-acrylamide]				Activity in murine renal cell carcinoma model [1]: anti-tumor, antimetastatic, and anti-angiogenic activities; Apoptosis in HepG2 cells (HepG2 cells): induces apoptosis; Tumor growth in mouse mammary carcinoma model (mouse mammary carcinoma): delay in tumor growth
O=C(NCc1ccc(S(=O)(=O)c2ccccc2)cc1)c1cc2cnccc2[nH]1 [N-{[4-(benzenesulfonyl)phenyl]methyl}-1H-pyrrolo[3,2-c]pyridine-2-carboxamide]	tumor regression			IC50 (U251 cells): 40 nM
O=C(NCc1ccc(S(=O)(=O)c2ccccc2)cc1)c1ccc2nccn2c1 [N-{[4-(benzenesulfonyl)phenyl]methyl}imidazo[1,2-a]pyridine-6-carboxamide]	tumor regression	21 nM	11 nM	
O=C(NCc1ccc(S(=O)(=O)c2ccccc2)cc1)c1cc2ccncc2s1 [N-{[4-(benzenesulfonyl)phenyl]methyl}thieno[2,3-c]pyridine-2-carboxamide]	tumor regression	11 nM	12 nM	
O=C(NCc1ccc(S(=O)(=O)c2cccnc2)cc1)c1cc2cnccc2[nH]1 [N-{[4-(pyridine-3-sulfonyl)phenyl]methyl}-1H-pyrrolo[3,2-c]pyridine-2-carboxamide]	delayed tumor growth	21 nM	48 nM	
